The source of these data is publication PMC8951750, “In Vitro Anticancer and Cancer-Preventive Activity of New Triterpene Glycosides from the Far Eastern Starfish Solaster pacificus” (Marine Drugs, 2022).

In test [1] the test system is non-cancerous mouse epidermal cells JB6 Cl41. Description: Cell viability, MTS assay, JB6 Cl41. It is filed as cell-based. As for the experimental part:
(§1) MTS assay was used to measure the cell viability of tested normal and cancer cells. Cells were seeded into 96-well plates (“Jet Biofil”, Guangzhou, China) at density of 1.0 × 10^4/200 µL for 24 h at 37 °C in a 5% CO2 incubator. Then, cell monolayer was treated either with DMSO (control) or various concentrations of the triterpene glycosides 1–9 from S. pacificus (0.1, 0.5, 2.5, 12.5, 62.5 µM) in fresh appropriate culture medium for 24 h. Subsequently, the cells were incubated with 15 µL of 3-(4,5-dimethylthiazol-2-yl)-5-(3-carboxymethoxyphenyl)-2-(4-sulfophenyl)-2H-tetrazolium (MTS reagent) (“Promega”, Madison, WI, USA) for 3 h, and the absorbance of each well was measured at 490/630 nm using Power Wave XS microplate reader (“BioTek”, Wynusky, VT, USA). The concentration at which the compounds exert half of their maximal inhibitory effect on cell viability (IC50) was calculated by the AAT-Bioquest® online calculator [39]. The selectivity index (SI) was calculated as described previously using the following formula SI = IC50 of the compounds in normal cell (JB6 Cl41)/IC50 of the same compounds in human melanoma cell lines (SK-MEL-2, SK-MEL-28, or RPMI-7951).
Background: Tetrazolium assays rely on reduction of a dye to a coloured formazan, in cell work by metabolically active cells.

Test [2] has as its system human melanoma cells SK-MEL-2. Briefly: Cell viability, MTS assay, SK-MEL-2. It is filed as cell-based. The protocol:
as §1

Test [3] deals with human melanoma cells SK-MEL-28. Briefly: Cell viability, MTS assay, SK-MEL-28. As to conditions: for SI (selectivity index) SK-MEL-28: IC50 JB6 Cl41 / IC50 SK-MEL-28. In kind it is cell-based. The protocol:
as §1

For test [4], the system named is human melanoma cells RPMI-7951. Briefly: Cell viability, MTS assay, RPMI-7951. It is filed as cell-based. The conditions noted are these: for SI (selectivity index) RPMI-7951: IC50 JB6 Cl41 / IC50 RPMI-7951. The protocol:
as §1

Test [5] deals with Human erythrocytes (O(I)+). Briefly: Hemolysis assay. In kind it is cell-based. The conditions noted are these: 1 h, 37 °C, PBS pH 7.4. The protocol:
Human erythrocytes (O(I)+) were obtained from Vladivostok blood transfusion station. Erythrocytes were centrifuged with PBS (pH 7.4) for 5 min at 4 °C by 450× g on a LABOFUGE 400R (Heraeus, Hanau, Germany) centrifuge three times. Then, the residue of erythrocytes was resuspended in ice-cold PBS (pH 7.4) to a final optical density of 2.0 at 700 nm and kept on ice. For the hemolytic assay, 180 µL of erythrocyte suspension was mixed with 20 µL of Cucumarioside A2-2 (positive control) and investigated compounds at concentrations range of 0.1, 0.5, 1, 5, 10 µM in V-bottom 96-well plates. After 1 h of incubation at 37 °C, plates were centrifuged at 900× g for 10 min on an LMC-3000 (Biosan, Riga, Latvia) laboratory centrifuge. Then, we carefully selected 100 µL of supernatant and transferred it to new flat plates, respectively. Lysis of erythrocytes was determined by measuring the concentration of hemoglobin in the supernatant with a microplate photometer Multiskan FC (Thermo Fisher Scientific, Waltham, MA, USA) at 570 nm. The effective dose causing 50% of erythrocytes hemolysis (ED50) was calculated using the computer program SigmaPlot 10.0. All experiments were made in triplicate, p < 0.01.

The test system of test [6] is JB6 Cl41 cells. Briefly: Soft agar assay, EGF-induced neoplastic cell transformation. The conditions noted are these: for inhibition at 0.1 µM: Mus musculus, JB6 Cl41, 336 h. In kind it is cell-based, mouse. The protocol: (§2) JB6 Cl41 cells (2.4 × 10^4) were exposed to epidermal growth factor (EGF) (1 ng/mL) or phorbol 12-myristate 13-acetate (TPA) (10 ng/mL) and treated either with DMSO (control) or the triterpene glycosides 1–9 from S. pacificus (0.1, 0.5, and 1 µM) in 1 mL of 0.3% basal medium Eagle (BME) agar containing 10% FBS, 2 mM L-glutamine, and 25 µg/mL gentamicin (agar mix). The cultures were maintained in a humidified atmosphere with 5% CO2 at 37 °C for 14 days, and the cell’s colonies were scored using a microscope, Motic AE 20 (XiangAn, Xiamen, China), and the ImageJ software bundled with 64-bit Java 1.8.0_112 (NIH, Bethesda, MD, USA). To determine the effect of investigated compounds on neoplastic cell transformation induced by ionizing radiation (X-ray or UVB), JB6 Cl41 cells (3 × 10^5/dish) were seeded in 60 mm dishes and cultured for 24 h at 37 °C in 5% CO2 incubator. Then, the cells were exposed to X-rays (X-ray system XPERT 80 (KUB Technologies, Inc, Milford, CT, USA)) at dose of 0.5 Gy or UVB (wavelengths below 312 nm) (Bio-Link UV irradiation system, Vilber, France) at dose of 0.3 J/cm^2 three times a week for 3 weeks. Irradiated JB6 Cl41 cells (2.4 × 10^4) were treated either with DMSO (control) or the triterpene glycosides 1–9 from S. pacificus (0.1, 0.5, and 1 µM) in 1 mL of agar mix. The cultures were maintained in a humidified atmosphere with 5% CO2 at 37 °C for 14 days, and the cell’s colonies were scored using a microscope, Motic AE 20 (XiangAn, Xiamen 361101, China), and the ImageJ software bundled with 64-bit Java 1.8.0_112 (NIH, Bethesda, MD, USA).

Test [7] concerns JB6 Cl41 cells. Briefly: Soft agar assay, TPA-induced neoplastic cell transformation. It is filed as cell-based, mouse. As to conditions: for inhibition at 0.1 µM: Mus musculus, JB6 Cl41, 336 h. As for the experimental part:
as §2

Test [8] relates to JB6 Cl41 cells. Description: Soft agar assay, X-ray-induced neoplastic cell transformation. In kind it is cell-based, mouse. As to conditions: for inhibition at 0.1 µM: Mus musculus, JB6 Cl41, 504 h. As for the experimental part: as §2
The test system of test [9] is JB6 Cl41 cells. Description: Soft agar assay, UVB-induced neoplastic cell transformation. In kind it is cell-based, mouse. The conditions noted are these: compound 0.1 µM, UVB 0.3 J/cm^2 three times a week for 3 weeks, soft agar. As for the experimental part: as §2
In a further test the test system is SK-MEL-2 cells. Briefly: Soft agar assay, colony formation of cancer cells. In kind it is cell-based, human. As to conditions: compound 0.1 µM, 14 days. The protocol: SK-MEL-2 cells (2.4 × 10^4) were treated either with DMSO (control) or the triterpene glycosides 1–9 from S. pacificus (0.1 µM) in 1 mL of agar mix. After 14 days, colonies of cancer cells were scored as described above.

The IC50 is the concentration that gives 50% inhibition.

SMILES strings stand for the structures. “And” between values parts separate entries of the source, which are not always exact repeats. Equal values may be shown once. Read-outs that look alike come from different tables or passages of the source.

For the molecule `COC1C(O)COC(OC2C(O)C(COS(=O)(=O)O)OC(OC3C(C)OC(OC4C(OC5CCC6(C)C7CCC89C(=O)OC(C)(C=CC=C(C)C)C8C(OC(C)=O)CC9(C)C7=CCC6C5(C)C)OCC(O)C4O)C(O)C3O)C2O)C1O` [Compound 6, 3β-O-{3-O-methyl-β-D-xylopyranosyl-(1→3)-6-O-6-sulfoxy-β-D-glucopyranosyl-(1→4)-β-D-quinovopyranosyl-(1→2)-β-D-xylopyranosyl}-16β-acetoxyholosta-7,22Z,24-triene], the 50% inhibitory concentration (IC50) was determined as 6.6 ± 0.3 µM in [1] (read-out: IC50, cell viability JB6 Cl41, MTS assay, 24 h, normal cells); 0.69 ± 0.03 µM in test [2] (read-out: IC50, cell viability SK-MEL-2, MTS assay, 24 h); 8.2 ± 0.2 µM in [3] (read-out: IC50, cell viability SK-MEL-28, MTS assay, 24 h); 32.4 ± 0.5 µM in test [4] (read-out: IC50, cell viability RPMI-7951, MTS assay, 24 h). Further, the “SI (selectivity index) SK-MEL-2” value in [2] (IC50 JB6 Cl41 / IC50 SK-MEL-2) was 9.5. In test [3], the “SI (selectivity index) SK-MEL-28” value is recorded as 0.8. The “SI (selectivity index) RPMI-7951” value in test [4] was determined as 0.2. In addition, the “ED50, effective dose causing 50% of erythrocytes hemolysis” value in test [5] was 1.68 µM and 1.68 ± 0.14 µM. The “inhibition of EGF-induced neoplastic transformation of JB6 Cl41 cells” value in the test with JB6 Cl41 cells [6] (compound 0.1 µM, EGF 1 ng/mL, soft agar, 2 weeks, vs positive control, 0.1 µM) amounted to 44%. Also, the “inhibition of TPA-induced neoplastic transformation of JB6 Cl41 cells” value with JB6 Cl41 cells [7] (compound 0.1 µM, TPA 10 ng/mL, soft agar, 2 weeks, vs positive control, 0.1 µM) came to 61%. In addition, in the test on JB6 Cl41 cells [8] (compound 0.1 µM, X-rays 0.5 Gy three times a week for 3 weeks, soft agar, 0.1 µM), the “inhibition of X-ray-induced cell transformation (JB6 Cl41 colonies formation)” value is listed as 23%. Moreover, the “inhibition of UVB-induced neoplastic cell transformation (decrease of colonies number)” value (“inhibition … (decrease of colonies number)” for short) in the test with JB6 Cl41 cells [9] (0.1 µM) amounted to 10%. The “decrease of colonies number of SK-MEL-2 cells (colony formation)” value (shortened to “decrease … (colony formation)”) in the test on SK-MEL-2 cells was 40%.
For the molecule `C=C(C)C1C2CC3(C)C4=CCC5C(C)(C)C(OC6OCC(O)C(O)C6OC6OC(C)C(OC7OC(CO)C(O)C(OC8OC(CO)C(O)C(OC)C8O)C7O)C(O)C6OC6OCC(O)C(O)C6O)CCC5(C)C4CCC13C(=O)O2` [Compound 7, 3β-O-{3-O-methyl-β-D-glucopyranosyl-(1→3)-β-D-glucopyranosyl-(1→4)-[β-D-xylopyranosyl-(1→2)]-β-D-quinovopyranosyl-(1→2)-β-D-xylopyranosyl}-23,24,25,26,27-pentanor-5α-lanosta-7,20(22)-diene-18(16)-lactone], the IC50 in [1] (Mus musculus, JB6 Cl41, 24 h, read-out: IC50, cell viability JB6 Cl41, MTS assay, 24 h, normal cells) amounted to 8.7 ± 0.07 µM; in [2] (Homo sapiens, SK-MEL-2, 24 h, read-out: IC50, cell viability SK-MEL-2, MTS assay, 24 h), 5.6 ± 0.1 µM; in test [3] (Homo sapiens, SK-MEL-28, 24 h, read-out: IC50, cell viability SK-MEL-28, MTS assay, 24 h) it was 23 ± 0.07 µM; in test [4] (Homo sapiens, RPMI-7951, 24 h, read-out: IC50, cell viability RPMI-7951, MTS assay, 24 h) it was 31.4 ± 0.1 µM. Also, the “SI (selectivity index) SK-MEL-28” value in [3] was 0.3. Also, the “SI (selectivity index) RPMI-7951” value in test [4] is 0.25. Besides, the “ED50, effective dose causing 50% of erythrocytes hemolysis” value in [5] is 4.07 ± 0.10 µM. In addition, the inhibition at 0.1 µM in the test with JB6 Cl41 cells [6] (read-out: inhibition of EGF-induced neoplastic transformation of JB6 Cl41 cells, compound 0.1 µM, EGF 1 ng/mL, soft agar, 2 weeks, vs positive control) was 20%; in the test on JB6 Cl41 cells [7] (read-out: inhibition of TPA-induced neoplastic transformation of JB6 Cl41 cells, compound 0.1 µM, TPA 10 ng/mL, soft agar, 2 weeks, vs positive control) it was 33%; in the test on JB6 Cl41 cells [8] (read-out: inhibition of X-ray-induced cell transformation (JB6 Cl41 colonies formation), compound 0.1 µM, X-rays 0.5 Gy three times a week for 3 weeks, soft agar), less than 15%. Moreover, the “inhibition … (decrease of colonies number)” value with JB6 Cl41 cells [9] is “not effective”. In the test with SK-MEL-2 cells, the “decrease … (colony formation)” value was determined as 15%.
For the molecule `C=C(C)C1C2CC3(C)C4=CCC5C(C)(C)C(OC6OCC(O)C(O)C6OC6OC(C)C(OC7OC(CO)C(O)C(O)C7O)C(O)C6OC6OCC(O)C(O)C6O)CCC5(C)C4CCC13C(=O)O2` [Compound 8, 3β-O-{β-D-glucopyranosyl-(1→4)-[β-D-xylopyranosyl-(1→2)]-β-D-quinovopyranosyl-(1→2)-β-D-xylopyranosyl}-23,24,25,26,27-pentanor-5α-lanosta-7,20(22)-diene-18(16)-lactone], the half-maximal inhibitory concentration (IC50) is 32.8 ± 2.8 µM in test [1] (Mus musculus, JB6 Cl41, 24 h, MTS assay, 24 h, normal cells, read-out: IC50, cell viability JB6 Cl41); greater than 50 µM in test [2] (Homo sapiens, SK-MEL-2, 24 h, MTS assay, 24 h, read-out: IC50, cell viability SK-MEL-2); 42 ± 0.4 µM in test [3] (Homo sapiens, SK-MEL-28, 24 h, MTS assay, 24 h, read-out: IC50, cell viability SK-MEL-28); greater than 50 µM in test [4] (Homo sapiens, RPMI-7951, 24 h, MTS assay, 24 h, read-out: IC50, cell viability RPMI-7951). In test [3], the “SI (selectivity index) SK-MEL-28” value came out at 0.8. In addition, in test [5], the “ED50, effective dose causing 50% of erythrocytes hemolysis” value turned out to be 6.16 ± 0.05 µM. For the same molecule, the inhibition at 0.1 µM in the test with JB6 Cl41 cells [6] (compound 0.1 µM, EGF 1 ng/mL, soft agar, 2 weeks, vs positive control, read-out: inhibition of EGF-induced neoplastic transformation of JB6 Cl41 cells) is 10%; with JB6 Cl41 cells [7] (compound 0.1 µM, TPA 10 ng/mL, soft agar, 2 weeks, vs positive control, read-out: inhibition of TPA-induced neoplastic transformation of JB6 Cl41 cells), 20%; in the test with JB6 Cl41 cells [8] (compound 0.1 µM, X-rays 0.5 Gy three times a week for 3 weeks, soft agar, read-out: inhibition of X-ray-induced cell transformation (JB6 Cl41 colonies formation)) it was less than 15%. The “inhibition … (decrease of colonies number)” value with JB6 Cl41 cells [9] was “not effective”. Moreover, the “decrease … (colony formation)” value with SK-MEL-2 cells is reported as 3%.
